According to PMC7603008 (Materials, 2020):
Ends that are not written are not given here.

Key:
MDPC-23 cells = experiment: Peptide translocation and localization by immunofluorescence; assay type: cell-based, mouse
Description: For peptide translocation and localization analysis, a Cy5 Fast Conjugation Kit (ab188288, Abcam, Cambridge, MA, USA) was used to tag Cpne7-DP according to the manufacturer’s instructions. MDPC-23 cells were treated with Cy5-labeled Cpne7-DP (10 µg/mL) and fixed 3 h later. Before fixing with 4% paraformaldehyde in PBS, cells in Laboratory-Tek chamber slides (Nunc, Rochester, NY, USA) were washed with PBS. Cells were then visualized using fluorescence microscopy (AX70, Olympus, Tokyo, Japan). DAPI (Sigma-Aldrich) was used to identify the chromosomal DNA in the nucleus (1:1000 dilution).

[1] = Dentinal tubule penetration by confocal laser scanning microscopy; parameters: species or system human; settings: Rhodamin B-labeled Cpne7-DP 20 µg microbrushed for 1 min onto acid-etched dentin of extracted tooth, PBS wash
Description: Human third molars were collected at the Seoul National University Dental Hospital (Seoul, Korea), and the experimental protocol was approved by the Institutional Review Board (IRB No: S-D20140007). Teeth were decoronated to 2–3 mm using a safe diamond disc (Isomet, Buehler Ltd., Düsseldorf, Germany) to eliminate the coronal enamel layer and expose the dentin surface. Teeth were then treated with 5 mL of 32% phosphoric acid solution for 5 min to completely open the dentinal tubules. To remove the residual smear layer, specimens were ultrasonicated in deionized water twice for 5 min each and then rinsed with PBS three times.
Cpne7-DP was tagged with Rhodamin B dye using the Rhodamine Fast Conjugation kit (ab188286, Abcam, Cambridge, MA, USA) according to the manufacturer’s instructions. Rhodamin B-labeled Cpne7-DP (20 µg) was applied to the dentin surfaces of specimens with the help of disposable microbrushes for 1 min, and then specimens were washed with PBS three times. Subsequently, the specimens were longitudinally sectioned at a thickness of 0.5 mm using a safe diamond disc. The sections were mounted onto glass slides and scanned under a confocal laser scanning microscope (LSM 700; Carl Zeiss, Jena, Germany).

hDPCs = experiment: MTT cytotoxicity / proliferation assay; assay type: cell-based, human; settings: 0 to 5 days, absorbance 540 nm, three independent experiments in triplicate
Description: To evaluate the effects of Cpne7-DP on hDPCs proliferation, an MTT [3-(4,5-Dimethylthiazol-2-yl)-2,5-diphenyltetrazolium bromide, a tetrazole] assay (Sigma-Aldrich, Saint Louis, MO, USA) was performed. Cells were seeded on a 96-well plate at a density of 3 × 10^3 cells/well and treated with Cpne7-DP after 24 h. Cells were cultured for up to 5 days, and MTT analyses were performed on days 0, 1, 3, and 5. After washing with phosphate-buffered saline (PBS), 20 µL of MTT was added to each well and incubated for 4 h at 37 °C. After removing the MTT solution, the converted dye was dissolved in Me2SO and measured by reading the absorbance at a wavelength of 540 nm with a microplate reader (Multiskan EX; Thermo Electron Corp., Waltham, MA, USA). Three independent experiments with triplicate samples were analyzed.

Sequence: KYKQKRRSYK [Cpne7-DP]
- Internalization with chlorpromazine (clathrin-mediated endocytosis inhibitor) (MDPC-23 cells; MDPC-23 cells pre-treated with CPZ 10 and 20 μM for 1 h, immunofluorescence): diffusely localized to the cytoplasm
- Internalization with ethylisopropyl amiloride (macropinocytosis inhibitor) (MDPC-23 cells; MDPC-23 cells pre-treated with EIPA for 1 h, immunofluorescence): no effect on the cytoplasmic localization
- Internalization with methyl-β-cyclodextrin (caveolin-mediated endocytosis inhibitor) (MDPC-23 cells; MDPC-23 cells pre-treated with MβCD for 1 h, immunofluorescence): diffusely localized to the cytoplasm
- Internalization in nucleolin siRNA-transfected cells (MDPC-23 cells; MDPC-23 cells pre-treated with nucleolin siRNA for 1 h, immunofluorescence): diffusely located in the cytoplasm
- Intracellular distribution (MDPC-23 cells; MDPC-23 cells, Cy5-labeled Cpne7-DP 10 µg/mL, fixed 3 h later, fluorescence microscopy): localized to the cytoplasm
- Ability to permeate dentinal tubules [1]: flow through the entire length of the dentinal tubules into the pulp
- Cytotoxicity versus control (MTT) (hDPCs): no significant difference in cytotoxicity
